# Results published in PubChem BioAssay (NCI).
# Where “and” joins values, the source holds several entries; their conditions need not be identical. Equal values may be shown once.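 Interpolation was linear, between the two tested concentrations surrounding the appropriate level; five concentrations were tested over 48 hours in 96-well plates. At the GI50, growth is halved. TGI is the concentration that stops growth completely.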
# Tests used:
# Experiment in all cases: DTP human tumour cell line panel, 48 h
# CCRF-CEM leukemia = test system: CCRF-CEM leukemia
# COLO 205 colon = test system: COLO 205 colon
# HT29 colon = test system: HT29 colon
# KM12 colon = test system: KM12 colon
# LOX IMVI melanoma = test system: LOX IMVI melanoma
# NCI-H522 lung = test system: NCI-H522 lung
# OVCAR-4 ovarian = test system: OVCAR-4 ovarian
# OVCAR-8 ovarian = test system: OVCAR-8 ovarian
# RXF 393 renal = test system: RXF 393 renal
# SK-MEL-5 melanoma = test system: SK-MEL-5 melanoma
SMILES,TGI (CCRF-CEM leukemia),TGI (COLO 205 colon),TGI (HT29 colon),TGI (KM12 colon),TGI (LOX IMVI melanoma),TGI (NCI-H522 lung) [µM],TGI (OVCAR-4 ovarian),TGI (OVCAR-8 ovarian),TGI (RXF 393 renal),TGI (SK-MEL-5 melanoma),GI50 (CCRF-CEM leukemia),GI50 (COLO 205 colon),GI50 (HT29 colon),GI50 (KM12 colon),GI50 (LOX IMVI melanoma),GI50 (NCI-H522 lung) [µM],GI50 (OVCAR-4 ovarian),GI50 (OVCAR-8 ovarian),GI50 (RXF 393 renal),GI50 (SK-MEL-5 melanoma)
N#CC(c1ccccc1)N1CCCN(C(C#N)c2ccccc2)C1c1ccccc1O (configuration not stated),> 100 µM,> 100 µM,> 100 µM,> 100 µM,> 100 µM,> 100,> 100 µM,> 100 µM,> 100 µM,> 100 µM,–,–,–,–,–,–,–,–,–,–
O=[n+]1c2c(n([O-])c3ccccc31)-c1cccc3cccc-2c13,> 100 µM,> 100 µM,> 100 µM,> 100 µM,> 100 µM,> 100,> 100 µM,> 100 µM,> 100 µM,> 100 µM,–,–,–,–,–,–,–,–,–,–
O=[N+]([O-])c1ccc2c(c1)c(N=NC(=S)NC1CCCCC1)c(O)n2CN1CCOCC1,2.75 µM,23.4 µM,17.9 µM,18 µM,19.3 µM,30.3,17.9 µM,17.4 µM,29 µM,11.3 µM,–,–,–,–,–,–,–,–,–,–
CCC(C)C1NC(=O)C2CCCN2C(=O)C(CC2CO2)OC(=O)CCNC(=O)C(C)N(C)C(=O)C(C(C)C)N(C)C1=O (configuration not stated),–,47.3 µM,> 100 µM,> 100 µM,0.118 µM,> 100,> 100 µM,> 100 µM,> 100 µM,< 0.0276 µM,–,–,–,–,–,–,–,–,–,–
COC(=O)C1C(C)N1C (configuration not stated),> 100 µM,> 100 µM,> 100 µM,> 100 µM,> 100 µM,> 100,> 100 µM,> 100 µM,> 100 µM,> 100 µM,–,–,–,–,–,–,–,–,–,–
Cc1cc(O)c(C(C)C)cc1CN1CCCCC1,> 100 µM,> 100 µM,> 100 µM,> 100 µM,> 100 µM,> 100,> 100 µM,> 100 µM,> 100 µM,> 100 µM,–,–,–,–,–,–,–,–,–,–
CC[C@@]1(O)C(=O)OCc2c1cc1n(c2=O)Cc2c-1nc1ccc(O)cc1c2CC[Si](C)(C)C,0.464 µM,1.16 µM,–,0.0659 µM,0.114 µM,0.299,0.0538 µM,0.197 µM,0.0494 µM and 0.0625 µM,0.123 µM and 0.0438 µM,–,–,–,–,–,–,–,–,–,–
O=C(O)C(CSC(c1ccccc1)(c1ccccc1)c1ccccc1)N=Cc1cccs1 (configuration not stated),> 100 µM,6.49 µM,18.6 µM,> 60.7 µM,> 59.8 µM,> 20.1,> 100 µM,42.3 µM,> 19.6 µM,> 24.7 µM,–,–,–,–,–,–,–,–,–,–
COc1ccc(N=c2ssc(C(=S)Nc3ccc(OC)cc3)c2S)cc1,> 100 µM,> 100 µM,> 100 µM,> 100 µM,> 100 µM,> 100,> 100 µM,> 100 µM,> 100 µM,> 100 µM,–,–,–,–,–,–,–,–,–,–
COC(=O)C1C(O)CCC2CN3CCc4c([nH]c5cccc(OC)c45)C3CC21 (configuration not stated),> 100 µM,> 100 µM,> 100 µM,> 100 µM,> 100 µM,> 100,> 100 µM,> 100 µM,> 100 µM,–,–,–,–,–,–,–,–,–,–,–
CCOC(=O)C1CCn2c(nc3c2c(=O)n(C)c(=O)n3C)S1 (configuration not stated),> 100 µM,–,> 100 µM,–,> 100 µM,> 100,> 100 µM,> 100 µM,> 100 µM,> 100 µM,–,–,–,–,–,–,–,–,–,–
C[C@]12CCC(=O)C=C1CC[C@@H]1[C@@H]2[C@@H](O)C[C@@]2(C)[C@H]1CC[C@]2(O)C(=O)CO,> 100 µM,> 100 µM,> 100 µM,> 100 µM,> 100 µM,> 100,> 100 µM,> 100 µM,> 100 µM,> 100 µM,–,–,–,–,–,–,–,–,–,–
O=C1c2cc3c(cc2-c2c1c1ccc(Cl)cc1c(=O)n2C[C@H](O)[C@@H](O)[C@H](O)CO)OCO3,17 µM,0.895 µM,0.283 µM,> 100 µM,0.103 µM,0.172,> 100 µM,> 100 µM,0.258 µM,0.0701 µM,< 0.01 µM,0.08 µM,0.0498 µM,0.138 µM,0.0145 µM,0.0117,0.177 µM,0.0633 µM,0.0536 µM,0.0253 µM
CC1(C)CCC2(C(=O)OC3OC(CO)C(O)C(O)C3O)CCC3(C)C(=CCC4C5(C)CCC(OC6OC(CO)C(O)C(O)C6O)C(C)(C)C5CCC43C)C2C1 (configuration not stated),14 µM,> 25 µM,> 25 µM,19 µM,8.51 µM,12.9,> 25 µM,> 25 µM,> 25 µM,> 25 µM,–,–,–,–,–,–,–,–,–,–
N[C@H]1CCN(c2c(F)cc3c(=O)c(C(=O)O)cn4c3c2Oc2cc3c(ccc5ccccc53)cc2-4)C1,–,9.28 µM,7.34 µM,> 100 µM,> 100 µM,> 100,> 100 µM,> 100 µM,> 100 µM,4.3 µM,–,–,–,–,–,–,–,–,–,–
NCCNc1nc(N2CCCC2)c2nc(Cl)c(NCc3ccccc3)nc2n1,6.87 µM,3.29 µM,5.46 µM,2.93 µM,3.06 µM,3.31,5.3 µM,–,2.91 µM,3.27 µM,–,–,–,–,–,–,–,–,–,–
C/C(=N\NC(=O)c1cccnc1)c1cccc(/C(C)=N/NC(=O)c2cccnc2)n1,> 100 µM,> 100 µM,> 100 µM,> 100 µM,> 100 µM,6.76,–,19.3 µM,–,7.12 µM,3.49 µM,4.15 µM,2.63 µM,–,–,1.58,–,–,–,2.05 µM
CC1(C)CC(=O)C2=C(C1)NC(SSC1=C(C#N)C(c3ccc(F)cc3)C3=C(CC(C)(C)CC3=O)N1)=C(C#N)C2c1ccc(F)cc1 (configuration not stated),136 µg/mL,55.8 µg/mL,47.2 µg/mL,> 150 µg/mL,63.3 µg/mL,–,52.7 µg/mL,49.9 µg/mL,41.1 µg/mL,44.7 µg/mL,34.1 µg/mL,29.1 µg/mL,25.1 µg/mL,52.9 µg/mL,30.5 µg/mL,–,27.7 µg/mL,28.8 µg/mL,21.4 µg/mL,22.9 µg/mL
CC(Sc1ccccc1)C(CO)(CO)[N+](=O)[O-] (configuration not stated),7.51 µM,–,32.9 µM,–,28.2 µM,26.3,32.1 µM,28.7 µM,31.3 µM,25.8 µM,–,–,–,–,–,–,–,–,–,–
COc1ccc(/C=C(\C#N)c2nc(N)nc(N3N=C(C)CC3(C)C)n2)c(O)c1,76.9 µM,30.9 µM,44.5 µM,29.2 µM,–,38.9,30.4 µM,> 100 µM,33.4 µM,28.5 µM,–,–,–,–,–,–,–,–,–,–
C[C@]12CC[C@@H]3c4ccccc4CC[C@H]3[C@@H]1CC[C@@H]2O,> 100 µM,> 100 µM,–,> 100 µM,> 100 µM,> 100,–,> 100 µM,> 100 µM,–,–,–,–,–,–,–,–,–,–,–
O=S(=O)(O)c1cccc2c(N=Nc3c(O)ccc4ccccc34)cccc12,> 100 µM,> 100 µM,> 100 µM,> 100 µM,> 100 µM,> 100,> 100 µM,> 100 µM,> 100 µM,> 100 µM,–,–,–,–,–,–,–,–,–,–
CN1C2CCC1C(C(O)c1ccccc1[N+](=O)[O-])C(=O)C2 (configuration not stated),> 100 µM,> 100 µM,> 100 µM,> 100 µM,> 100 µM,> 100,> 100 µM,> 100 µM,–,> 100 µM,–,–,–,–,–,–,–,–,–,–
Nc1nc(N)c2c(n1)NC(c1ccccc1)CC(/C=C/c1ccc(Cl)cc1)=N2 (configuration not stated),50.4 µM,7.5 µM,15.2 µM,13.6 µM,13.4 µM,5.32,20.5 µM,37.2 µM,16.7 µM,23.4 µM,–,–,–,–,–,–,–,–,–,–
O=S1(=O)OC(c2ccc(O)cc2)(c2ccc(O)cc2)c2ccccc21,> 100 µM,> 100 µM,> 100 µM,> 100 µM,> 100 µM,> 100,> 100 µM,> 100 µM,> 100 µM,> 100 µM,–,–,–,–,–,–,–,–,–,–
